Data reported in paper PMC3574224, “Na^+ Regulation in the Malaria Parasite Plasmodiumfalciparum Involves the Cation ATPase PfATP4 and Is a Target of the Spiroindolone Antimalarials” (Cell Host & Microbe, 2013).

What was measured:
P. falciparum Dd2 parent = assay: Disruption of [Na^+]i regulation, SBFI-loaded trophozoites, Dd2 parent; assay type: cell-based; conditions: Plasmodium falciparum, DD2, read-out: IC50 for disruption of Na^+ regulation by NITD246
Method: (§1) The [Na^+]i of saponin-isolated parasites was measured at 37°C using the Na^+-sensitive dye SBFI (Molecular Probes, Invitrogen) in conjunction with a PerkinElmer LS 50B Fluorescence Spectrometer fitted with a Dual Excitation Fast Filter. Saponin-isolated parasites were loaded with SBFI by suspension (at 1.40–1.80 × 10^8 cells/mL) for 20 min at 37°C in bicarbonate-free RPMI1640 supplemented with 20 mM D-glucose, 0.2 mM hypoxanthine, 25 mM HEPES, and 25 mg/L gentamycin sulfate (pH 7.10), to which SBFI-acetoxymethyl ester (5.5 μM) and Pluronic F-127 (0.01% w/v) were added. The dye-loaded cells were washed twice (12,000 × g, 0.5 min) in bicarbonate-free RPMI then incubated for a further 20 min at 37°C to allow for complete de-esterification of the dye before being resuspended at a final cell concentration of 1.5–2.5 × 10^7 cells/mL in standard saline. The dye-loaded cells were excited at 340 nm and 380 nm with fluorescence recorded at 490 nm. Calibration of the relationship between the 340/380 nm fluorescence ratio and [Na^+]i (see Figures S1A–S1C) was carried out as described previously ([Diarra et al., 2001]; [Harootunian et al., 1989]). Several inhibitors used in this study caused inner filter effects ([Gu and Kenny, 2009]; [Srinivas and Mutharasan, 1987]); in these cases calibration curves were generated with the inhibitors present. […]

[1] = test system: P. falciparum trophozoites; assay: Recovery of [Na^+]i from an imposed intracellular Na^+ load (K^+ removal and restoration); assay type: cell-based, Plasmodium falciparum; conditions: added with 10 mM KCl
Method: The mechanism responsible for the increase in [Na^+]i seen upon removal of extracellular K^+ was not investigated further here. However, the phenomenon does provide a useful means of imposing an intracellular Na^+ load on the parasite and of testing the effect of inhibitors on the net efflux of Na^+ from the Na^+-loaded parasite.
The [Na^+]i of saponin-isolated parasites was measured at 37°C using the Na^+-sensitive dye SBFI (Molecular Probes, Invitrogen) in conjunction with a PerkinElmer LS 50B Fluorescence Spectrometer fitted with a Dual Excitation Fast Filter. Saponin-isolated parasites were loaded with SBFI by suspension (at 1.40–1.80 × 10^8 cells/mL) for 20 min at 37°C in bicarbonate-free RPMI1640 supplemented with 20 mM D-glucose, 0.2 mM hypoxanthine, 25 mM HEPES, and 25 mg/L gentamycin sulfate (pH 7.10), to which SBFI-acetoxymethyl ester (5.5 μM) and Pluronic F-127 (0.01% w/v) were added. The dye-loaded cells were washed twice (12,000 × g, 0.5 min) in bicarbonate-free RPMI then incubated for a further 20 min at 37°C to allow for complete de-esterification of the dye before being resuspended at a final cell concentration of 1.5–2.5 × 10^7 cells/mL in standard saline. The dye-loaded cells were excited at 340 nm and 380 nm with fluorescence recorded at 490 nm. Calibration of the relationship between the 340/380 nm fluorescence ratio and [Na^+]i (see Figures S1A–S1C) was carried out as described previously ([Diarra et al., 2001]; [Harootunian et al., 1989]). Several inhibitors used in this study caused inner filter effects ([Gu and Kenny, 2009]; [Srinivas and Mutharasan, 1987]); in these cases calibration curves were generated with the inhibitors present.
The rate of efflux of Na^+ from the cells, following an imposed intracellular Na^+ load, was estimated by fitting the following function to the [Na^+]i traces: [Na^+]i = Δ[Na^+]i^max × e^-at + [Na^+]i^final, where Δ[Na^+]i^max is the increase in [Na^+]i above the normal resting value (following the imposition of an intracellular Na^+-load), t is the time after the commencement of efflux (on addition of extracellular K^+), a is a fitted constant, and [Na^+]i^final is the final value of [Na^+]i. The initial Na^+ efflux rate (at t = 0) is a × Δ[Na^+]i^max, and the half-time to complete recovery (t1/2) is ln(0.5)/-a.

[2] = test system: P. falciparum trophozoites; assay: Cytosolic [Ca^2+]i in fura-2-loaded saponin-isolated parasites; assay type: cell-based, Plasmodium falciparum; conditions: 50 nM; medium containing 1 μM Ca^2+
Method: [Ca^2+]i was measured with the Ca^2+-sensitive indicator fura-2 (Molecular Probes, Invitrogen) using a loading protocol identical to that described for SBFI. Calibration was performed as described previously ([Alleva and Kirk, 2001]).

[3] = test system: P. falciparum Dd2^attB CAM I398F/P990R (mutant PfATP4 transfectant); assay: Disruption of [Na^+]i regulation, SBFI-loaded trophozoites, Dd2^attB CAM I398F/P990R; assay type: cell-based; conditions: Plasmodium falciparum, from fitted curves, read-out: IC50 for disruption of Na^+ regulation by NITD246
Method: as §1

[4] = test system: P. falciparum NITD609-R^Dd2 clone #2 (mutant PfATP4); assay: Disruption of [Na^+]i regulation, SBFI-loaded trophozoites, NITD609-R^Dd2 clone #2; assay type: cell-based; conditions: Plasmodium falciparum, from fitted curves, read-out: IC50 for disruption of Na^+ regulation by NITD246
Method: as §1

C[C@H]1Cc2c([nH]c3cc(F)c(F)cc23)[C@@]2(N1)C(=O)Nc1ccc(Cl)cc12 [NITD246]
IC50 (P. falciparum Dd2 parent): 1.6 ± 0.3 nM | Effect on recovery of [Na^+]i after Na^+ load ([1]; 1 nM): [Na^+]i remaining at the level reached at the point of addition of extracellular K^+ | Effect on recovery of [Na^+]i after Na^+ load ([1]; 5 nM): prolonged time-dependent increase in [Na^+]i | Effect on [Ca^2+]i [2]: no effect | IC50 [3]: 3.9 ± 1.7 nM | IC50 [4]: 10.4 ± 8.4 nM
